Patent US10160747B2, “Compounds and methods for kinase modulation, and indications therefor” (Plexxikon Inc., priority 2016, dated 2018)

Columns and labels:
FLT3-D835Y = target: T1, FLT3-D835Y (Homo sapiens, UniProt P36888, D835Y); assay: FLT3-D835Y recombinant enzyme kinase assay (AlphaScreen); type: biochemical; conditions: 8 pt, GMean
T1 construct: purchased Invitrogen PV3967
T1 sequence (P36888 27-993 D835Y): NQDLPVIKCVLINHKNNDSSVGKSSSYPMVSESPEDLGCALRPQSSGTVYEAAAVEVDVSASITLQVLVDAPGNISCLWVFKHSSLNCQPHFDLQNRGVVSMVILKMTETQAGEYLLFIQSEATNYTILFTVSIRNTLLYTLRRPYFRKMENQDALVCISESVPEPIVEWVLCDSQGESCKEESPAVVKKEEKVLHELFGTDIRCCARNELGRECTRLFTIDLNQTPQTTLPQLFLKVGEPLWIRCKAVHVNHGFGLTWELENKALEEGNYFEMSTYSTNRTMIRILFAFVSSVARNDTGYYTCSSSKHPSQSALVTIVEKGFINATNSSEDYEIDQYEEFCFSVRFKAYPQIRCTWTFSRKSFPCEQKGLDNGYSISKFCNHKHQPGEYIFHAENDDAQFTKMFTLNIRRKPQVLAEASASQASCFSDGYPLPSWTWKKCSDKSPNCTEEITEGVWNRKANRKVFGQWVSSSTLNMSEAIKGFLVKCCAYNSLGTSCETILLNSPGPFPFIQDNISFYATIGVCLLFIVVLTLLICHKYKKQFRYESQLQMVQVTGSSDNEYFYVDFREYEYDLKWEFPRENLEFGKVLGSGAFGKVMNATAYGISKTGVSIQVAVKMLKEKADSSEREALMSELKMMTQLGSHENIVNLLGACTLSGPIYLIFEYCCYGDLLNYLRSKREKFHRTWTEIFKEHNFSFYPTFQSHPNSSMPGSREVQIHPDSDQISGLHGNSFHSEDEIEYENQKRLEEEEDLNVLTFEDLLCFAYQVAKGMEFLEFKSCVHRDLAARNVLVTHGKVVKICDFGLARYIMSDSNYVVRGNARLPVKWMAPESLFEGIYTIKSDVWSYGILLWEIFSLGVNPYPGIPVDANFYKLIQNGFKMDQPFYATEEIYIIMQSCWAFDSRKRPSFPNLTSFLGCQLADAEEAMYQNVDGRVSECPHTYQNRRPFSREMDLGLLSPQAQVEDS
Method in brief: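 Recombinant enzyme phosphorylated biotinylated poly(Glu4-Tyr) peptide (30 nM final) with ATP at 10 μM for FLT3-ITD and FLT3-D835Y or 100 μM for c-KIT. Phosphopeptide was detected by AlphaScreen with streptavidin donor and anti-phosphotyrosine (PY20) acceptor beads (10 μg/mL), read at 580 nm, for IC50 determination.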

[1] = test system: MOLM-14 D835Y (endogenous FLT3 ITD and transfected FLT3 D835Y); assay: MOLM-14 D835Y cell proliferation assay (CellTiter-Glo); type: cell-based; conditions: Homo sapiens, MOLM-14, 72 h; 3 d growth, GMean
Method in brief: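 MOLM-14 derivatives carrying D835Y or F691L, selected under escalating AC220, were seeded at 1×10^4 cells/well and exposed to an 8-point 1:3 compound series (1 to 0.00046 μM, 0.2% DMSO final) for three days at 37° C., 5% CO2. CellTiter-Glo luminescence (ATP content) versus concentration gave IC50.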

Compound	IC50 (FLT3-D835Y) [µM]	IC50 [1] [µM]
COCCn1cc(Nc2ncc(-c3ccc(CC(=O)Nc4ccc(C(F)(F)F)cn4)c(F)c3)cn2)cn1 [Compound P-0269, 2-[2-fluoro-4-[2-[[1-(2-methoxyethyl)pyrazol-4-yl]amino]pyrimidin-5-yl]phenyl]-N-[5-(trifluoromethyl)-2-pyridyl]acetamide]	0.0001 to 10	0.0001 to 10
COc1ncc(NC(=O)Cc2ccc(-c3cnc(Nc4cnn(C5CC5)c4)nc3)cc2F)cc1C(F)(F)F [Compound P-0241, 2-[4-[2-[(1-cyclopropylpyrazol-4-yl)amino]pyrimidin-5-yl]-2-fluoro-phenyl]-N-[6-methoxy-5-(trifluoromethyl)-3-pyridyl]acetamide]	0.0001 to 10	0.0001 to 10
Cc1ncc(NC(=O)Cc2ccc(-c3cnc(Nc4cnn(C5CC5)c4)nc3)cc2F)cc1C(F)(F)F [Compound P-0239, 2-[4-[2-[(1-cyclopropylpyrazol-4-yl)amino]pyrimidin-5-yl]-2-fluoro-phenyl]-N-[6-methyl-5-(trifluoromethyl)-3-pyridyl]acetamide]	0.0001 to 10	0.0001 to 10
CCn1cc(Nc2ncc(-c3cc(F)c(CC(=O)Nc4cnc(OC)c(C(F)(F)F)c4)cc3F)cn2)cn1 [Compound P-0247, 2-[4-[2-[(1-ethylpyrazol-4-yl)amino]pyrimidin-5-yl]-2,5-difluoro-phenyl]-N-[6-methoxy-5-(trifluoromethyl)-3-pyridyl]acetamide]	0.0001 to 10	0.0001 to 10
COCCn1cc(Nc2ncc(-c3ccc(CC(=O)Nc4cncc(C(F)(F)F)c4)c(F)c3)cn2)cn1 [Compound P-0267, 2-[2-fluoro-4-[2-[[1-(2-methoxyethyl)pyrazol-4-yl]amino]pyrimidin-5-yl]phenyl]-N-[5-(trifluoromethyl)-3-pyridyl]acetamide]	0.0001 to 10	0.0001 to 10
COc1ncc(NC(=O)Cc2ccc(-c3cnc4[nH]c(-c5cnn(C(F)F)c5)cc4c3)cc2F)cc1C(F)(F)F [Compound P-0015, 2-[4-[2-[1-(difluoromethyl)pyrazol-4-yl]-1H-pyrrolo[2,3-b]pyridin-5-yl]-2-fluoro-phenyl]-N-[6-methoxy-5-(trifluoromethyl)-3-pyridyl]acetamide]	0.0001 to 10	0.0001 to 10
Cc1ncc(NC(=O)Cc2ccc(-c3cnc(Nc4cnn(C(F)F)c4)nc3)cc2)cc1C(F)(F)F [Compound P-0210, 2-[4-[2-[[1-(difluoromethyl)pyrazol-4-yl]amino]pyrimidin-5-yl]phenyl]-N-[6-methyl-5-(trifluoromethyl)-3-pyridyl]acetamide]	0.0001 to 10	0.0001 to 10
Cc1ncc(NC(=O)Cc2ccc(-c3cnc(Nc4cnn(C5CC5)c4)nc3)cc2)cc1C(F)(F)F [Compound P-0232, 2-[4-[2-[(1-cyclopropylpyrazol-4-yl)amino]pyrimidin-5-yl]phenyl]-N-[6-methyl-5-(trifluoromethyl)-3-pyridyl]acetamide]	0.0001 to 10	0.0001 to 10
COc1ncc(NC(=O)Cc2ccc(-c3cnc(Nc4cnn(C(F)F)c4)nc3)cc2)cc1C(F)(F)F [Compound P-0211, 2-[4-[2-[[1-(difluoromethyl)pyrazol-4-yl]amino]pyrimidin-5-yl]phenyl]-N-[6-methoxy-5-(trifluoromethyl)-3-pyridyl]acetamide]	0.0001 to 10	0.0001 to 10
COc1ncc(NC(=O)Cc2ccc(-c3cnc(Nc4cn[nH]c4C)nc3)cc2)cc1C(F)(F)F [Compound P-0221, N-[6-methoxy-5-(trifluoromethyl)-3-pyridyl]-2-[4-[2-[(5-methyl-1H-pyrazol-4-yl)amino]pyrimidin-5-yl]phenyl]acetamide]	0.0001 to 10	0.0001 to 10
CCOc1n[nH]c2ncc(-c3ccc(CC(=O)Nc4cnc(OC)c(C(F)(F)F)c4)cc3F)cc12 [Compound P-0202, 2-[4-(3-ethoxy-1H-pyrazolo[3,4-b]pyridin-5-yl)-3-fluoro-phenyl]-N-[6-methoxy-5-(trifluoromethyl)-3-pyridyl]acetamide]	0.0001 to 10	0.0001 to 10
CCn1cc(Nc2ncc(-c3ccc(CC(=O)Nc4ccc(C(F)(F)F)nc4)c(F)c3)cn2)cn1 [Compound P-0257, 2-[4-[2-[(1-ethylpyrazol-4-yl)amino]pyrimidin-5-yl]-2-fluoro-phenyl]-N-[6-(trifluoromethyl)-3-pyridyl]acetamide]	0.0001 to 10	0.0001 to 10
CCn1cc(Nc2ncc(-c3ccc(CC(=O)Nc4cnc(OC)c(C(F)(F)F)c4)cc3)cn2)cn1 [Compound P-0253, 2-[4-[2-[(1-ethylpyrazol-4-yl)amino]pyrimidin-5-yl]phenyl]-N-[6-methoxy-5-(trifluoromethyl)-3-pyridyl]acetamide]	0.0001 to 10	0.0001 to 10
COCCn1cc(Nc2ncc(-c3ccc(CC(=O)Nc4cnc(Cl)c(C(F)(F)F)c4)c(F)c3)cn2)cn1 [Compound P-0266, N-[6-chloro-5-(trifluoromethyl)-3-pyridyl]-2-[2-fluoro-4-[2-[[1-(2-methoxyethyl)pyrazol-4-yl]amino]pyrimidin-5-yl]phenyl]acetamide]	0.0001 to 10	0.0001 to 10
COc1ncc(NC(=O)Cc2ccc(-c3cnc4[nH]c(C#CC(C)(C)O)cc4c3)cc2)cc1C(F)(F)F [Compound P-0214, 2-(4-(2-(3-hydroxy-3-methylbut-1-yn-1-yl)-1H-pyrrolo[2,3-b]pyridin-5-yl)phenyl)-N-(6-methoxy-5-(trifluoromethyl)pyridin-3-yl)acetamide]	0.0001 to 10	0.0001 to 10
COc1ncc(NC(=O)Cc2ccc(-c3cnc4[nH]nc(C5CC5)c4c3)cc2F)cc1C(F)(F)F [Compound P-0262, 2-[4-(3-cyclopropyl-1H-pyrazolo[3,4-b]pyridin-5-yl)-2-fluoro-phenyl]-N-[6-methoxy-5-(trifluoromethyl)-3-pyridyl]acetamide]	0.0001 to 10	0.0001 to 10
COc1ncc(NC(=O)Cc2ccc(-c3cnc4[nH]c(C#Cc5cncn5C)cc4c3)cc2)cc1C(F)(F)F [Compound P-0227, N-[6-methoxy-5-(trifluoromethyl)-3-pyridyl]-2-[4-[2-[2-(3-methylimidazol-4-yl)ethynyl]-1H-pyrrolo[2,3-b]pyridin-5-yl]phenyl]acetamide]	0.0001 to 10	0.0001 to 10
Cn1cc(Nc2ncc(-c3ccc(CC(=O)Nc4cc(C(F)(F)F)ccn4)cc3F)cn2)cn1 [Compound P-0017, 2-[3-fluoro-4-[2-[(1-methylpyrazol-4-yl)amino]pyrimidin-5-yl]phenyl]-N-[4-(trifluoromethyl)-2-pyridyl]acetamide]	0.0001 to 10	0.0001 to 10
CCn1cc(Nc2ncc(-c3ccc(CC(=O)Nc4cncc(C(F)(F)F)c4)c(F)c3)cn2)cn1 [Compound P-0258, 2-[4-[2-[(1-ethylpyrazol-4-yl)amino]pyrimidin-5-yl]-2-fluoro-phenyl]-N-[5-(trifluoromethyl)-3-pyridyl]acetamide]	0.0001 to 10	0.0001 to 10
O=C(Cc1ccc(-c2cnc(Nc3cnn(C4CC4)c3)nc2)cc1)Nc1ccc(C(F)(F)F)nc1 [Compound P-0235, 2-[4-[2-[(1-cyclopropylpyrazol-4-yl)amino]pyrimidin-5-yl]phenyl]-N-[6-(trifluoromethyl)-3-pyridyl]acetamide]	0.0001 to 10	0.0001 to 10
COCCn1cc(Nc2ncc(-c3ccc(CC(=O)Nc4ccc(C(F)(F)F)cn4)cc3)cn2)cn1 [Compound P-0274, 2-[4-[2-[[1-(2-methoxyethyl)pyrazol-4-yl]amino]pyrimidin-5-yl]phenyl]-N-[5-(trifluoromethyl)-2-pyridyl]acetamide]	0.0001 to 10	0.0001 to 10
COc1ncc(NC(=O)Cc2ccc(-c3cnc4[nH]c(C#CC(C)(C)C)cc4c3)cc2)cc1C(F)(F)F [Compound P-0219, 2-[4-[2-(3,3-dimethylbut-1-ynyl)-1H-pyrrolo[2,3-b]pyridin-5-yl]phenyl]-N-[6-methoxy-5-(trifluoromethyl)-3-pyridyl]acetamide]	–	0.0001 to 10
COc1cc(-c2cc3cc(-c4ccc(CC(=O)Nc5cncc(C(F)(F)F)c5)cc4F)cnc3[nH]2)ccn1 [Compound P-0200, 2-(3-fluoro-4-(2-(2-methoxypyridin-4-yl)-1H-pyrrolo[2,3-b]pyridin-5-yl)phenyl)-N-(5-(trifluoromethyl)pyridin-3-yl)acetamide]	–	0.0001 to 10
